Assays:
PEPCK expression = assay: Larval diabetic zebrafish assay, Western blot of PEPCK; type: in vivo; settings: duplicate Western blot (FIG. 10), diabetic zebrafish larvae, 10 μM
Procedure: (§1) Following isolation, derivatization, and analysis of compounds 41-48 through the in vitro panel of assays, the mace natural products and licarin A derivatives were investigated in the larval diabetic zebrafish assay for potential antidiabetic activity. Western blot analysis of zebrafish expression levels for glycated hemoglobin, metabolic enzymes, and molecular targets NFκB and PPAR-γ was performed to evaluate potential lead improvement and to discover possible mechanisms of action.
Wild-type zebrafish were sorted into 24-well microplates with 10 fish per well for a four-phase treatment cycle. At 72 hpf, type 2 diabetes was induced by administering 0.5 mg/mL alloxan in fish water for percutaneous absorption. After three hours of alloxan treatment, phase two of the treatment cycle was initiated by administering 10 μM doses of natural product compounds 41-43 (FIG. 4) or derivatives 45-48 (FIG. 6) with 0.01% DMSO in system water. At 78 hpf, the incubation solution was changed to 10 mg/ml D-glucose for 30 minutes, followed by a phase-four rinse in fresh system w Following the four-phase treatment cycle, zebrafish treatment groups were snap frozen in microcentrifuge tubes on dry ice, stored overnight at −80° C., thawed, and homogenized with 2 μL PBS per animal. Following centrifugation (60 minutes at 4° C. and 17,000 rpm), protein content of the homogenate supernatant was determined using the Pierce BCA Protein Assay kit (Pierce Biotechnology). Homogenates were analyzed by Western blot with equal amounts of total protein (20 μg) in each sample and using 4×LDS loading buffer (NuPAGE Life Technologies). The immunoblot samples were heated at 95° C. for 5 minutes and loaded onto NuPAGE Bis-Tris 4-12% gradient SDS-PAGE gels.
Electrophoresis was performed with NuPAGE MES SDS Running Buffer and using the XCell SureLock Mini-Cell Electrophoresis System (Life Technologies). Proteins separated on the gel were transferred to a PVDF membrane using TBST buffer. The blots were blocked in 3% BSA in TBST and subsequently probed overnight with primary antibodies (1:1000 in 1% BSA in TBST) against each target of interest. Following TBST rinses, secondary HRP-conjugated antibodies (1:2000) were applied to the membrane for 60 minutes. The HRP conjugated antibodies were detected using SuperSignal West Femto chemiluminescent substrate (Pierce Biotechnology) and immunoblot images were captured using the luminometer and Lumi Analyst 3.0 software.
(§2) Band densities were determined using ImageJ Gel Analysis to determine expression levels of each protein of interest. Expression levels of HbA1C, PPAR-γ, and NFκB were organized into a bar graphs (FIG. 5) with band densities calculated in comparison to the housekeeping gene β-actin, normalized to the untreated diabetic group (B) of zebrafish. […].

GLUT-4 expression = assay: Larval diabetic zebrafish assay, Western blot of GLUT-4; type: in vivo; settings: duplicate Western blot (FIG. 11), diabetic zebrafish larvae, 10 μM
Procedure: as §1
Wild-type zebrafish were sorted into 24-well microplates with 10 fish per well for a four-phase treatment cycle. At 72 hpf, type 2 diabetes was induced by administering 0.5 mg/mL alloxan in fish water for percutaneous absorption. After three hours of alloxan treatment, phase two of the treatment cycle was initiated by administering 10 μM doses of natural product compounds 41-43 (FIG. 4) or derivatives 45-48 (FIG. 6) with 0.01% DMSO in system water. […] Following centrifugation (60 minutes at 4° C. and 17,000 rpm), protein content of the homogenate supernatant was determined using the Pierce BCA Protein Assay kit (Pierce Biotechnology). Homogenates were analyzed by Western blot with equal amounts of total protein (20 μg) in each sample and using 4×LDS loading buffer (NuPAGE Life Technologies). […]
Electrophoresis was performed with NuPAGE MES SDS Running Buffer and using the XCell SureLock Mini-Cell Electrophoresis System (Life Technologies). […] The HRP conjugated antibodies were detected using SuperSignal West Femto chemiluminescent substrate (Pierce Biotechnology) and immunoblot images were captured using the luminometer and Lumi Analyst 3.0 software.
as §2

## C/C=C/c1cc(OC)c2c(c1)[C@H](C)[C@@H](c1ccc(O)c(OC)c1)O2 [Compound 42, licarin A]
PEPCK expression
  PEPCK expression (band density): retained low PEPCK expression
GLUT-4 expression
  GLUT-4 expression (band density): significantly increased capacities for glucose uptake
